Patent US5434182A (priority 1993, dated 1995)
Values joined by “and” are separate entries in the source; they are usually repeats but may differ in a detail not shown here. Identical values can stand only once. “Also recorded” adds a separate entry of the source. Like-named read-outs stand apart in the source and are kept apart here.

Assays:
Group B streptococcus = test: Inactivation of bacteria by monoglycerides, Group B streptococcus; format: cell-based; conditions: 2 mg/ml, read-out: Reduction of bacterial concentration, Group B streptococcus
VSV [1] = test: microbe, parasite or virus in culture; format: cell-based, vesicular stomatitis virus
VSV [2] = test: microbe, parasite or virus in culture; format: cell-based, vesicular stomatitis virus strain Indiana
HSV-1 [3] = format: cell-based, herpes simplex virus type 1 strain MacIntyre
HSV-1 [4] = test: microbe, parasite or virus in culture; format: cell-based, herpes simplex virus type 1 strain MacIntyre; conditions: Human alphaherpesvirus 1, 0.5 h; 0.25 mg/ml, 37° C., 30 min; read-out: Reduction of virus titer, HSV-1
Total White Blood Cells = test: Stability of white blood cells in whole human blood to added lipid; format: cell-based; design: unit not given here; conditions: 15 mM, control 6.4
Source text: Further testing has shown the effect of monoglyceride esters and ether on the total white blood cell concentration in whole human blood.

VSV [5] = test: microbe, parasite or virus in culture; format: cell-based, vesicular stomatitis virus; conditions: for Reduction in VSV titer: 5 mM, with 10 mM sodium taurocholate, 37° 30 min; for Reduction in VSV titer / antiviral activity of MG ethers relative to esters, in words: human plasma; for log reduction at 15000 µM: Vesicular stomatitis virus
sperm = test: Spermicidal test: motility and viability of sperm in semen; format: cell-based; conditions: for viability at 100000 µM / viability at 150000 µM: Homo sapiens, Sperm
Method: The fatty acids and derivatives thereof disclosed here are useful as spermicides and in the treatment of sexually transmitted diseases. […] Four samples tested were comprised as follows:
Five test tubes were prepared, one for each of Samples A to D and a Control. An amount of 0.5 ml of active semen was added to each test tube. Each of Samples A and B and the Control was at 37° C., and Samples C and D were at room temperature. The percentages of motility and viability were measured from 15 seconds to 5 minutes in the case of each of Samples A to D and from 15 seconds to 2 hours for the Control.

VSV [6] = test: microbe, parasite or virus in culture; format: cell-based, vesicular stomatitis virus strain Indiana; conditions: Vesicular stomatitis virus, 0.5 h; for minimal effective concentration: read-out: lowest concentration which reduced the VSV titer by ≥4.0 log10 units
HSV-1 [7] = test: microbe, parasite or virus in culture; format: cell-based, herpes simplex virus type 1 strain MacIntyre; conditions: Human alphaherpesvirus 1, 0.5 h, 37° C., 30 min, read-out: Reduction of virus titer, HSV-1
Visna virus = test: microbe, parasite or virus in culture; format: cell-based, Visna virus strain K796; conditions: Visna-maedi virus, 0.5 h, 37° C., 30 min, read-out: Reduction of virus titer, VV (visna virus)
poliovirus = format: cell-based, Poliovirus type 1 strain Chat; conditions: 8 mg/ml, 37° C., 30 min; control 10^4.7 TCID50
enveloped viruses = format: cell-based
[8] = read-out: Reduction of virus titer, VSV

Question: What does the source list for `CCCCCCCCCCCC(=O)OCC(O)CO` (racemic) [Monolaurin (12:0), 1-Monolauroyl-rac-glycerol]?
Answer: log reduction at 2000 µg/mL (Group B streptococcus): 4.5; dependence of viral killing on sodium taurocholate (VSV [1]; VSV, human serum): only takes place when sodium taurocholate is present; log reduction at 3000 µM (VSV [1]; Vesicular stomatitis virus, read-out: Reduction in VSV Titer, 3 mM, 10 mM sodium taurocholate, human serum): ≥ 5; log reduction at 3000 µM (VSV [1]; Vesicular stomatitis virus, read-out: Reduction in VSV Titer, 3 mM, no sodium taurocholate, human serum): 0; log reduction at 4000 µM (VSV [1]; Vesicular stomatitis virus, read-out: Reduction in VSV Titer, 4 mM, 10 mM sodium taurocholate, human serum): ≥ 5; log reduction at 4000 µM (VSV [1]; Vesicular stomatitis virus, read-out: Reduction in VSV Titer, 4 mM, no sodium taurocholate, human serum): 0; log reduction at 5000 µM (VSV [1]; Vesicular stomatitis virus, read-out: Reduction in VSV Titer, 5 mM, 10 mM sodium taurocholate, human serum): ≥ 5; log reduction at 5000 µM (VSV [1]; Vesicular stomatitis virus, read-out: Reduction in VSV Titer, 5 mM, no sodium taurocholate, human serum): 0; log reduction at 7500 µM (VSV [1]; Vesicular stomatitis virus, read-out: Reduction in VSV Titer, 7.5 mM, 10 mM sodium taurocholate, human serum (Table 18)): ≥ 5; log reduction at 15000 µM (VSV [1]; Vesicular stomatitis virus, read-out: Reduction in VSV Titer, 15 mM, 10 mM sodium taurocholate, human serum): ≥ 5; concentration as low as which kills VSV (VSV [1]; in the presence of 10 mM sodium taurocholate): 3 mM; minimal effective concentration (VSV [2]; Vesicular stomatitis virus, 0.5 h, read-out: Lowest concentration causing ≥3.0 log10 reduction in virus titer): 250 µg/mL and 900 µM; log reduction at 250 µg/mL (VSV [2]; Vesicular stomatitis virus, 0.5 h, read-out: Reduction of virus titer, VSV): ≥ 4; active concentration relative to corresponding free acids (VSV [2]; monoglyceride vs free acid): ten times lower; Reduction of HSV-L titer (HSV-1 [3]; incubation 0.5 min): ≥ 4.0; Reduction of HSV-L titer (HSV-1 [3]; incubation 1 min): ≥ 4.0; Reduction of HSV-L titer (HSV-1 [3]; incubation 5 min): ≥ 4.0; Reduction of HSV-L titer (HSV-1 [3]; incubation 10 min): ≥ 4.0; Reduction of HSV-L titer (HSV-1 [3]; incubation 30 min): ≥ 4.0; log reduction at 250 µg/mL (HSV-1 [4]): ≥ 3.7

Question: Which “Total White Blood Cells” value (Total White Blood Cells) does the source give for `CCCCCCCCCCOC[C@@H](O)CO` [1-O-Decyl-sn-glycerol, 1-O-decyl-sn-glycerol] here?
Answer: Its value is 1.31.

Question: What about the “Reduction in VSV titer” value (VSV [5]) of the same molecule?
Answer: The value was 0 Log10.

Question: And the “antiviral activity of MG ethers relative to esters, in words” value (VSV [5])?
Answer: Its value is “just as effective as the naturally occurring esters”.

Question: For `CCCCCCCCOC[C@@H](O)CO` [1-O-Octyl-sn-glycerol, 1-O-octyl-sn-glycerol], which “% mot.” value (sperm; 100 mM in semen, 15 sec., Sample B 37° C., Sample D room temperature) is on record?
Answer: The value was 0%.

Question: And the “% mot.” value (sperm; 100 mM in semen, 30 sec., Sample B 37° C., Sample D room temperature)?
Answer: The value was 0%.

Question: And the “% mot.” value (sperm; 100 mM in semen, 1 min., Sample B 37° C., Sample D room temperature)?
Answer: The value was 0%.

Question: And the “% mot.” value (sperm; 100 mM in semen, 2 min., Sample B 37° C., Sample D room temperature)?
Answer: Its value is 0%.

Question: And the “% mot.” value (sperm; 100 mM in semen, 3 min., Sample B 37° C., Sample D room temperature)?
Answer: Its value is 0%.

Question: And the “% mot.” value (sperm; 100 mM in semen, 5 min., Sample B 37° C., Sample D room temperature)?
Answer: Its value is 0%.

Question: What about the “% mot.” value (sperm; 150 mM in semen, 15 sec., Sample A 37° C., Sample C room temperature) of the same molecule?
Answer: The value was 0%.

Question: And the “% mot.” value (sperm; 150 mM in semen, 30 sec., Sample A 37° C., Sample C room temperature)?
Answer: The value was 0%.

Question: And the “% mot.” value (sperm; 150 mM in semen, 1 min., Sample A 37° C., Sample C room temperature)?
Answer: Its value is 0%.

Question: What about the “% mot.” value (sperm; 150 mM in semen, 2 min., Sample A 37° C., Sample C room temperature) of the same molecule?
Answer: The value was 0%.

Question: What about the “% mot.” value (sperm; 150 mM in semen, 3 min., Sample A 37° C., Sample C room temperature) of the same molecule?
Answer: Its value is 0%.

Question: And the “% mot.” value (sperm; 150 mM in semen, 5 min., Sample A 37° C., Sample C room temperature)?
Answer: Its value is 0%.

Question: What about the “time within which 0% viability was effected” value (sperm; A, C 150 mM, B 100 mM in semen) of the same molecule?
Answer: Its value is at most 3 min.

Question: What about the “time within which sperm cells were rendered immobile” value (sperm; A, C 150 mM, B 100 mM in semen) of the same molecule?
Answer: The value was at most 15 s.

Question: What about the coating of sperm (sperm; A, C 150 mM, B, D 100 mM in semen, 30 minutes) of the same molecule?
Answer: The coating of sperm was “coated the sperm effectively”.

Question: And the viability at 100000 µM (sperm; 0.05 h, 100 mM in semen, 3 min., Sample B 37° C.)?
Answer: The viability at 100000 µM was 0%.

Question: And the viability at 150000 µM (sperm; 0.05 h, 150 mM in semen, 3 min., Sample A 37° C., Sample C room temperature)?
Answer: Its viability at 150000 µM is 0%.

Question: And the viability at 100000 µM (sperm; 5 min, 100 mM in semen, Sample B 37° C., Sample D room temperature)?
Answer: Its viability at 100000 µM is 0%.

Question: What about the viability at 150000 µM (sperm; 5 min, 150 mM in semen, Sample A 37° C., Sample C room temperature) of the same molecule?
Answer: Its viability at 150000 µM is 0%.

Question: And the “Total White Blood Cells” value (Total White Blood Cells)?
Answer: Its value is 0.6.

Question: And the “Reduction in VSV titer” value (VSV [5])?
Answer: The value was at least 4.0 Log10.

Question: What about the log reduction at 15000 µM (VSV [5]; 2.5 min, read-out: Reduction in VSV Titer, 15 mM, 2.5 min, 37°, human plasma) of the same molecule?
Answer: The log reduction at 15000 µM was 0.

Question: What about the log reduction at 15000 µM (VSV [5]; 5 min, read-out: Reduction in VSV Titer, 15 mM, 5 min, 37°, human plasma) of the same molecule?
Answer: The log reduction at 15000 µM was at least 4.

Question: What about the log reduction at 15000 µM (VSV [5]; 10 min, read-out: Reduction in VSV Titer, 15 mM, 10 min, 37°, human plasma) of the same molecule?
Answer: Its log reduction at 15000 µM is at least 4.

Question: What about the log reduction at 15000 µM (VSV [5]; 0.25 h, read-out: Reduction in VSV Titer, 15 mM, 15 min, 37°, human plasma) of the same molecule?
Answer: Its log reduction at 15000 µM is at least 4.

Question: And the log reduction at 15000 µM (VSV [5]; 0.5 h, read-out: Reduction in VSV Titer, 15 mM, 30 min, 37°, human plasma)?
Answer: Its log reduction at 15000 µM is at least 4.

Question: And the log reduction at 15000 µM (VSV [5]; 0.5 h, read-out: Reduction in VSV Titer, 15 mM, no sodium taurocholate, human plasma, 37° 30 min)?
Answer: The log reduction at 15000 µM was at least 4.

Question: What about the “antiviral activity of MG ethers relative to esters, in words” value (VSV [5]; listed as 8 carbon MG ether) of the same molecule?
Answer: Its value is “just as effective as the naturally occurring esters; also recorded: somewhat more antiviral than the 8 carbon ester”.

Question: With `CCCCCCCCCC(=O)O` [Capric (10:0), Capric] as the molecule, how does the log reduction at 4000 µg/mL (VSV [6]; [8]) read?
Answer: The log reduction at 4000 µg/mL was at least 4.

Question: And the minimal effective concentration (VSV [6])?
Answer: The minimal effective concentration was 4000 µg/mL and 22000 µM.

Question: What about the log reduction at 4000 µg/mL (HSV-1 [7]; 4 mg/ml) of the same molecule?
Answer: The log reduction at 4000 µg/mL was at least 4.

Question: And the log reduction at 4000 µg/mL (Visna virus; 4 mg/ml)?
Answer: Its log reduction at 4000 µg/mL is at least 3.2.

Question: And the “reduction of poliovirus titer” value (poliovirus)?
Answer: The value was “did not cause a significant reduction of virus titer”.

Question: Which results are given for `CCCCCCCCCCCC(=O)O` [Lauric (12:0), Lauric]?
Answer: log reduction at 2000 µg/mL (VSV [6]; [8]): ≥ 4; minimal effective concentration (VSV [6]): 2000 µg/mL and 10000 µM; antiviral activity in words (enveloped viruses): showed activity; log reduction at 2000 µg/mL (HSV-1 [7]; 2 mg/ml): ≥ 4; log reduction at 2000 µg/mL (Visna virus; 2 mg/ml): ≥ 3.2; reduction of poliovirus titer (poliovirus): did not cause a significant reduction of virus titer
